From patent US12171856B2, “Use of salidroside derivative in external preparation for skin whitening” (SHANGHAI CHEERMORE BIOLOGICAL TECHNOLOGY CO., LTD, priority 2019, dated 2024)

What was measured:
[1] = tested on: Human melanocytes; experiment: Inhibition of NGF/UV-induced melanin generation in human melanocytes (absorbance at 490 nm); assay type: cell-based; details: 60 h
Procedure: (§1) Human melanocytes and tool melanocytes were used to conduct the experiment in this section. Human melanocytes and tool melanocytes were inoculated in a 96-well plate, with a plating density of 5,000 cells/well. After the cells adhered to a wall, nerve growth factor (NGF) was added to the culture and the culture was irradiated with UV to induce the generation of melanin, which simulated a melanin generation process in vivo. Then β-D-glucoside derivatives to be tested each were added at a final concentration of 100 μM to the cells, and the cells were further cultivated in an incubator at 37° C. and 5% CO2 for 60 h, where 3 replicates were set for each group. The cells were washed with pre-cooled phosphate buffered saline (PBS), then digested with trypsin, and centrifuged, and a resulting supernatant was discarded. The cells were lysed with a NaOH (1 mol/L) solution including 10% dimethyl sulfoxide (DMSO) in a 65° C. water bath to make melanin granules completely dissolved out, and the absorbance at 490 nm was determined with a microplate reader. Finally, the absorbance value was used to reflect a melanin content.
Human melanocytes and tool melanocytes were used to conduct the experiment in this section. Human melanocytes and tool melanocytes were inoculated in a 96-well plate, with a plating density of 5,000 cells/well. After the cells adhered to a wall, NGF was added to the culture and the culture was irradiated with UV to induce the generation of melanin, which simulated a melanin generation process in vivo. SP-037 was added to the cells at 6 concentrations of 0 μM, 12.5 μM, 25 μM, 50 μM, 100 μM, and 200 μM, and then the cells were further cultivated in an incubator at 37° C. and 5% CO2 for 60 h, where 5 replicates were set for each group. The cells were washed with pre-cooled PBS, then digested with trypsin, and centrifuged, and a resulting supernatant was discarded. The cells were lysed with a NaOH (1 mol/L) solution including 10% DMSO in a 65° C. water bath to make melanin granules completely dissolved out, and the absorbance at 490 nm was determined with a microplate reader. Finally, the absorbance value was used to reflect a melanin content.
(§2) Human melanocytes and tool melanocytes were used to conduct the experiment in this section. Human melanocytes and tool melanocytes were inoculated in a 96-well plate, with a plating density of 5,000 cells/well. […] The cells were lysed with a NaOH (1 mol/L) solution including 10% DMSO in a 65° C. water bath to make melanin granules completely dissolved out, and the absorbance at 490 nm was determined with a microplate reader. Finally, the absorbance value was used to reflect a melanin content.

[2] = tested on: tool melanocytes; experiment: Inhibition of NGF/UV-induced melanin generation in tool melanocytes (absorbance at 490 nm); assay type: cell-based; details: 60 h, FIG. 6
Procedure: as §1, with “The cells were washed with pre-cooled phosphate buffered saline (PBS), then digested with trypsin, and centrifuged, and a resulting supernatant was discarded.” left out
as §2, with “section.” for “section. Human melanocytes and tool melanocytes were inoculated in a 96-well plate, with a plating density of 5,000 cells/well.”, “content. […]” for “content.”

[3] = tested on: Kunming mice; experiment: Long-term toxicity test on mouse skin; assay type: in vivo
Procedure: Kunming mice were used to conduct the experiment in this section. SP-037 was prepared into solutions with concentrations of 2.5% (mass to volume ratio), 5% (mass to volume ratio), and 10% (mass to volume ratio) using NS. A control group, a 2.5% dosage group, a 5% dosage group, and a 10% dosage group were set, separately. One mouse was used for the blank group, and two mice were used for each of the experimental groups. Application on the dorsal skin: the hair on the back of mice was removed by depilatory cream, and a drug was applied at a corresponding concentration on the bare skin every day, which lasted for 3 months. During the test period, pictures were taken and the body weight of mice were recorded regularly, and it was observed whether there were white spots and other skin irritation or poisoning phenomena.

[4] = tested on: arm skin of the volunteers; experiment: Human skin irritation test (patch test); assay type: in vivo; details: gel with 10% SP-037 in 2% sodium carboxymethyl cellulose
Procedure: In order to further achieve the use of SP-037 in the field of skin care, it is necessary to ensure the safety of SP-037 first. In the experiment of this section, a gel (2% sodium carboxymethyl cellulose prepared with deionized water) with the main component of 10% SP-037 was prepared, then volunteers were recruited, and a patch test was conducted on the arm skin of the volunteers to evaluate the safety of SP-037.

[5] = tested on: skin at the inner side of the arm of volunteers with dark skin; experiment: Skin whitening effect in volunteers (Dermalab skin color probe, melanin and L*a*b values); assay type: in vivo, human
Procedure: A total of 33 volunteers with dark skin were recruited, and the 33 volunteers were 22 to 38 years old. The 33 volunteers were randomly divided into 7 groups, including: a blank control group: 3, an SP-037 group: 5; a VC group: 5; a kojic acid group: 5; a thiamidol group: 5; a hydroquinone group: 5; and a 377 group: 5. A blank gel and gels with the main components of SP-037, VC, kojic acid, thiamidol, hydroquinone, and 377 respectively were prepared. An inner side of the left arm of each volunteer in each group was washed and then evenly applied with a corresponding gel every day, which lasted for 4 weeks. The Dermalab instrument was used to determine the characteristics of skin at the inner side of the arm with a skin color test probe on day 0, day 14, and day 28 to obtain melanin and L*a*b values, and according to final statistical data, the whitening effect of each component was analyzed.

OC[C@H]1O[C@@H](OCCc2cc(O)cc(O)c2)[C@H](O)[C@@H](O)[C@@H]1O [SP-037]
effect of SP-037 on a melanin content ([1]; 0-200 μM, human melanocytes and tool melanocytes (not separated in text), FIG. 5): can significantly inhibit the generation of melanin at a cellular level | effects of β-D-glucoside derivatives on a melanin content ([1]; final concentration 100 μM, human melanocytes and tool melanocytes (not separated in text), FIG. 1): shows the optimal effect | inhibitory activity on in vitro simulated melanin generation compared with whitening positive drugs ([1]; human melanocytes, FIG. 6): significantly better than that of the positive drugs VC, kojic acid, and hydroquinone | concentration showing an ideal effect on melanin generation ([1]; tested at 12.5-200 μM, human melanocytes and tool melanocytes, FIG. 5): 50 µM | inhibitory activity on melanin generation compared with whitening positive drugs [2]: significantly better than that of VC and kojic acid, but slightly inferior to that of hydroquinone | white spots, skin irritation injuries or poisoning symptoms ([3]; 2.5%, 5%, 10% (mass to volume) in NS applied daily on dorsal skin): none of the mice has white spots, redness and swelling, and other skin irritation injuries, or poisoning symptoms | changes in the body weight and skin condition ([3]; 2.5%, 5%, 10% (mass to volume) in NS applied daily on dorsal skin, FIG. 7 and FIG. 8): in line with the growth pattern of normal mice | white spots, skin irritation and toxicity (conclusion of long-term toxicity test) ([3]; at a dosage of 10% (mass to volume ratio)): will not cause white spots, skin irritation, and toxicity | irritating pain, itching felt by volunteers during patch test [4]: no irritating pain, itching, or the like | sensitization to the skin (patch test) ([4]; FIG. 9): has no sensitization to the skin | effect on melanin content in skin (skin melanin pigmentation) ([5]; gel applied daily for 4 weeks, day 0, 14, 28, FIG. 10): can significantly improve the skin melanin pigmentation | effect on skin brightness ([5]; gel applied daily for 4 weeks, day 0, 14, 28, FIG. 11): improve the skin brightness | whitening effect compared with VC, kojic acid, thiamidol, hydroquinone and 377 ([5]; gels applied daily for 4 weeks, FIG. 10 and FIG. 11): significantly better than that of raw materials VC, kojic acid, thiamidol, and hydroquinone currently on the market, but slightly inferior to that of 377
